Measured values reported in ChEMBL document CHEMBL1201862, “PubChem BioAssay data set” (2004).
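Growth conditions: 96-well plates. Treatment: test compound, 48 hours, 5 concentrations. Analysis: linear interpolation between bracketing concentrations; unreached endpoints set to highest concentration. GI50 marks 50% less growth.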 Active and inactive are the calls of the source. Rule as the data show it: active = GI50 up to about 1.1 µM and inactive = higher.

Tests used:
Experiment in all cases: growth of human tumour cells (NCI), 48 h
786-0 = tested on: 786-0
A498 = tested on: A498
CCRF-CEM = tested on: CCRF-CEM
HL-60 = tested on: HL-60
IGROV-1 = tested on: IGROV-1
M14 = tested on: M14
MDA-N = tested on: MDA-N
MOLT-4 = tested on: MOLT-4
NCI/ADR-RES = tested on: NCI/ADR-RES
PC-3 = tested on: PC-3
SK-MEL-28 = tested on: SK-MEL-28
SK-MEL-5 = tested on: SK-MEL-5
SNB-19 = tested on: SNB-19
SR = tested on: SR
TK-10 = tested on: TK-10
UACC-257 = tested on: UACC-257
A549 = tested on: A549
HCC 2998 = tested on: HCC 2998
OVCAR-4 = tested on: OVCAR-4
SF-295 = tested on: SF-295

For `CC1CCCc2c(-c3ccc(Cl)cc3)nc(N)c(C#N)c21` (stereo unspecified), the GI50 (786-0) was 42.1 µM (inactive), the GI50 (A498) was 28.4 µM (inactive) and the GI50 (CCRF-CEM) was 21.1 µM (inactive). The GI50 (HL-60) was 22.7 µM (inactive), the GI50 (IGROV-1) was 19.6 µM (inactive) and the GI50 (M14) was 30 µM (inactive). The GI50 (MDA-N) was 24 µM (inactive), the GI50 (MOLT-4) was 20 µM (inactive) and the GI50 (NCI/ADR-RES) was 23.2 µM (inactive). The GI50 (PC-3) was 21.6 µM (inactive), the GI50 (SK-MEL-28) was 34.2 µM (inactive) and the GI50 (SK-MEL-5) was 18.3 µM (inactive). The GI50 (SNB-19) was 64.7 µM (inactive), the GI50 (SR) was 9.84 µM (inactive) and the GI50 (TK-10) was 43.7 µM (inactive). For the same compound, the GI50 (UACC-257) was 27.7 µM (inactive).

With `C[C@H]1C/C=C/[C@H]2[C@@H]3O[C@]3(C)[C@@H](C)[C@H]3[C@H](Cc4ccccc4)NC(=O)[C@]32OC(=O)O/C=C/[C@@](C)(O)C1=O` [CYTOCHALASIN E] the GI50 (786-0) was 0.114 µM (active), the GI50 (A498) was 0.0181 µM (active) and the GI50 (A549) was 0.0253 µM (active). For the same compound, the GI50 (CCRF-CEM) was 0.021 µM (active), the GI50 (HCC 2998) was 0.138 µM (active) and the GI50 (HL-60) was 0.0838 µM (active). The GI50 (M14) was 0.0436 µM (active), the GI50 (MDA-N) was 0.0231 µM (active) and the GI50 (MOLT-4) was 8.59 µM (inactive). The GI50 (NCI/ADR-RES) was 5.69 µM (inactive), the GI50 (OVCAR-4) was 0.0262 µM (active) and the GI50 (PC-3) was 0.0141 µM (active). The GI50 (SK-MEL-28) was 0.2 µM (active), the GI50 (SK-MEL-5) was 0.0211 µM (active) and the GI50 (SNB-19) was 0.0604 µM (active). For the same compound, the GI50 (SR) was 0.065 µM (active), the GI50 (TK-10) was < 0.01 µM (active) and the GI50 (UACC-257) was 0.263 µM (active).

`Cc1nc2ccc(Cl)cc2c(Cl)c1CCCl` was tested, and the GI50 (786-0) was > 100 µM (inactive), the GI50 (A498) was 83 µM (inactive) and the GI50 (A549) was 40.9 µM (inactive). For the same compound, the GI50 (CCRF-CEM) was 15.1 µM (inactive), the GI50 (HCC 2998) was 30.7 µM (inactive) and the GI50 (HL-60) was 46.6 µM (inactive). For the same compound, the GI50 (IGROV-1) was 72.6 µM (inactive), the GI50 (M14) was 31 µM (inactive) and the GI50 (MDA-N) was 8.15 µM (inactive). For the same compound, the GI50 (MOLT-4) was 15.6 µM (inactive), the GI50 (NCI/ADR-RES) was 33.5 µM (inactive) and the GI50 (PC-3) was 80.7 µM (inactive). The GI50 (SF-295) was 48.2 µM (inactive), the GI50 (SK-MEL-28) was > 100 µM (inactive) and the GI50 (SK-MEL-5) was 25.3 µM (inactive). For the same compound, the GI50 (SNB-19) was 45.4 µM (inactive), the GI50 (SR) was 34.4 µM (inactive) and the GI50 (TK-10) was > 100 µM (inactive). The GI50 (UACC-257) was 74 µM (inactive).

For `O=C(NCCC1([N+](=O)[O-])CCN(C(=O)c2ccccc2)CC1)c1ccccc1`, the GI50 (786-0) was > 100 µM (inactive), the GI50 (A498) was > 100 µM (inactive) and the GI50 (A549) was > 100 µM (inactive). For the same compound, the GI50 (CCRF-CEM) was > 100 µM (inactive), the GI50 (HL-60) was > 100 µM (inactive) and the GI50 (IGROV-1) was > 100 µM (inactive). For the same compound, the GI50 (M14) was > 100 µM (inactive), the GI50 (MDA-N) was 47.1 µM (inactive) and the GI50 (MOLT-4) was > 100 µM (inactive). The GI50 (NCI/ADR-RES) was > 100 µM (inactive), the GI50 (OVCAR-4) was 52 µM (inactive) and the GI50 (PC-3) was > 100 µM (inactive). For the same compound, the GI50 (SF-295) was > 100 µM (inactive), the GI50 (SK-MEL-5) was 37.2 µM (inactive) and the GI50 (SNB-19) was > 100 µM (inactive). For the same compound, the GI50 (SR) was > 100 µM (inactive), the GI50 (TK-10) was > 100 µM (inactive) and the GI50 (UACC-257) was 24.7 µM (inactive).

For `OC1(c2ccc(Cl)cc2)C(N2CCCC2)c2ccccc2C2=NCCN21` (stereo unspecified), the GI50 (786-0) was 35.1 µM (inactive), the GI50 (A498) was 21.2 µM (inactive) and the GI50 (A549) was 39.9 µM (inactive). For the same compound, the GI50 (CCRF-CEM) was 17.6 µM (inactive), the GI50 (HL-60) was 20.7 µM (inactive) and the GI50 (IGROV-1) was 16.1 µM (inactive). For the same compound, the GI50 (M14) was 15.8 µM (inactive), the GI50 (MDA-N) was 17.8 µM (inactive) and the GI50 (MOLT-4) was 16 µM (inactive). The GI50 (NCI/ADR-RES) was 18.6 µM (inactive), the GI50 (OVCAR-4) was 20 µM (inactive) and the GI50 (PC-3) was 30 µM (inactive). The GI50 (SF-295) was 13.6 µM (inactive), the GI50 (SK-MEL-28) was 13.9 µM (inactive) and the GI50 (SK-MEL-5) was 15.1 µM (inactive). For the same compound, the GI50 (SNB-19) was 54.3 µM (inactive), the GI50 (SR) was 15.1 µM (inactive) and the GI50 (TK-10) was 14.6 µM (inactive). For the same compound, the GI50 (UACC-257) was 20.1 µM (inactive).

With `CC[C@H](C)C1=C(O)[N@+]2([O-])Oc3ccc(-c4c(O)c(O)c(-c5ccc(O)cc5)c(OC(C)=O)c4OC(C)=O)cc3O[C@]2([C@@H](C)CC)C(=O)N1O` the GI50 (786-0) was 47.2 µM (inactive), the GI50 (A498) was 13.9 µM (inactive) and the GI50 (A549) was 16.7 µM (inactive). The GI50 (HL-60) was 17.7 µM (inactive), the GI50 (IGROV-1) was 6.4 µM (inactive) and the GI50 (M14) was 30.2 µM (inactive). The GI50 (MDA-N) was 29.2 µM (inactive), the GI50 (MOLT-4) was 16.3 µM (inactive) and the GI50 (NCI/ADR-RES) was 16.5 µM (inactive). The GI50 (OVCAR-4) was 11.6 µM (inactive), the GI50 (PC-3) was 22.2 µM (inactive) and the GI50 (SF-295) was 24.8 µM (inactive). For the same compound, the GI50 (SK-MEL-28) was 46.8 µM (inactive), the GI50 (SK-MEL-5) was 19 µM (inactive) and the GI50 (SNB-19) was 47.3 µM (inactive). The GI50 (SR) was 23.5 µM (inactive), the GI50 (TK-10) was 24.3 µM (inactive) and the GI50 (UACC-257) was > 50 µM (inactive).

With `Cc1ccc(C(C)C)c(OCC(=O)N/N=C/c2c[nH]c3ccc(Br)cc23)c1` the GI50 (786-0) was 3.42 µM (inactive), the GI50 (A498) was 4.09 µM (inactive) and the GI50 (A549) was 3.1 µM (inactive). The GI50 (CCRF-CEM) was 2.11 µM (inactive), the GI50 (HL-60) was 2.37 µM (inactive) and the GI50 (IGROV-1) was 2 µM (inactive). The GI50 (M14) was 1.98 µM (inactive), the GI50 (MDA-N) was 0.923 µM (active) and the GI50 (MOLT-4) was 3.3 µM (inactive). For the same compound, the GI50 (NCI/ADR-RES) was 1.57 µM (inactive), the GI50 (OVCAR-4) was 3 µM (inactive) and the GI50 (PC-3) was 0.625 µM (active). For the same compound, the GI50 (SF-295) was 2.45 µM (inactive), the GI50 (SK-MEL-28) was 8.93 µM (inactive) and the GI50 (SK-MEL-5) was 1.38 µM (inactive). For the same compound, the GI50 (SNB-19) was 2.87 µM (inactive), the GI50 (SR) was 0.698 µM (active) and the GI50 (TK-10) was 2.4 µM (inactive). For the same compound, the GI50 (UACC-257) was 2.87 µM (inactive).

For `CC12CCC(CC(=O)/C1=C(/Br)I)C2(C)C` (stereo unspecified), the GI50 (786-0) was 16.1 µM (inactive), the GI50 (A498) was 19.3 µM (inactive) and the GI50 (A549) was 14.6 µM (inactive). The GI50 (CCRF-CEM) was 14.3 µM (inactive), the GI50 (HL-60) was 3.43 µM (inactive) and the GI50 (IGROV-1) was 16.9 µM (inactive). The GI50 (M14) was 14.4 µM (inactive), the GI50 (MDA-N) was 12.2 µM (inactive) and the GI50 (MOLT-4) was 7.18 µM (inactive). The GI50 (NCI/ADR-RES) was 15.3 µM (inactive), the GI50 (OVCAR-4) was 15.1 µM (inactive) and the GI50 (PC-3) was 11.1 µM (inactive). For the same compound, the GI50 (SF-295) was 0.31 µM (active), the GI50 (SK-MEL-28) was 16.2 µM (inactive) and the GI50 (SK-MEL-5) was 11.4 µM (inactive). The GI50 (SNB-19) was 15.3 µM (inactive), the GI50 (SR) was 15.8 µM (inactive) and the GI50 (TK-10) was 18.8 µM (inactive). The GI50 (UACC-257) was 16.2 µM (inactive).
